Source: US20050171424A1, “Methods for imaging the lymphatic system using dendrimer-based contrast agents” (The Gov. of the USA as rep. by the Secretary of the Dept. …, priority 2004, published 2005)
“Also recorded” adds a separate entry of the source.

Assays:
deep lymphatic system = test: Whole-body dynamic 3D-micro-MR lymphangiography of normal mice (Example 2); format: in vivo; settings: for Number of Mice in Which the Thoracic Duct was Visualized/Number of Mice Examined: Normal Mice, 0.1 μmolGd intracutaneously into four middle phalanges
Description: (§1) The mice were anesthetized with 1.15 mg sodium pentobarbital (Dainabot, Osaka, Japan) i.p., and then injected intracutaneously with 0.1 μmolGd of PAMAM-G8, DAB-G5, PAMAM-G4, Gadomer-17, or GPDM into four middle phalanges in all four extremities. Dynamic micro-MR images were obtained using a 1.5-Tesla superconductive magnet unit (Signa LX, General Electric Medical System, Milwaukee, Wis.) with a round birdcage type coil of 3 cm diameter fixed by a custom-made coil holder. Four to eight female mice (7 weeks old, 18-21 g body weight) in each group were used and each contrast agent was prepared at least three separate times for these imaging studies. The mice were wrapped with gauze to stabilize their body temperature and were placed at the center of the coils.
(§2) A 3D-fast spoiled gradient echo [3D-fastSPGR (efgre3d package; Signa Horizon, GE); repetition time/echo time 28.5/7.9 msec; inversion time 65 msec; 31.2 kHz, flip angle 30°, four excitations; 40 slice-encoding steps; scan time 7 min 36 seconds] with chemical shift fat-suppression was used 10, 20, 30, and 45 min after injection of the contrast agents. The coronal images were reconstructed with 0.6-mm section thickness at every 0.3-mm. The FOV was 6×3 cm and the size of the matrix was 512×256. The intensities of the regions of interest (ROIs) (for example, a whole axillary lymph node, and the liver) were measured, and then the time-intensity curves analyzed. The data were expressed as the axillary lymph node-to-muscle and the axillary lymph node-to-liver ratios. The slice data were processed into 3D images using the MIP method with the same window and level (window 3500 and level 2300) (Advantage Windows, General Electric Medical System). Two board-certified radiologists separately read a set of stereo views of 3D-MRL for all studies, and estimated the visualization of the thoracic duct. After imaging, the mice were sacrificed by carbon dioxide inhalation.
Statistical analyses were performed using either Student's t-test or a one-way analysis of variance (ANOVA), with a pairwise comparison using the Bonferroni method for signal intensity curves (Statview; SAS Institute Inc., Cary, N.C.).

[1] = tested on: lymphatic vessels in Concanavalin A lymphangitis; test: 3D-micro-MRL in Concanavalin A lymphangitis model; format: in vivo, C57BL6 mice; settings: FIGS. 10, 14A
Description: To generate a lymphangitis model, Concanavalin A ([…]) (Sigma, St. Louis, Mo.) was injected intravenously into C57BL6 mice (NCI, Frederick, Md.) 24 hours before MRI was performed.
The mice were anesthetized with 1.15 mg sodium pentobarbital (Dainabot, Osaka, Japan) i.p., and then injected intracutaneously with 0.1 μmolGd of PAMAM-G8, DAB-G5, PAMAM-G4, Gadomer-17, or GPDM into four middle phalanges in all four extremities. Dynamic micro-MR images were obtained using a 1.5-Tesla superconductive magnet unit (Signa LX, General Electric Medical System, Milwaukee, Wis.) with a round birdcage type coil of 3 cm diameter fixed by a custom-made coil holder. […]
A 3D-fast spoiled gradient echo [3D-fastSPGR (efgre3d package; Signa Horizon, GE); repetition time/echo time 28.5/7.9 msec; inversion time 65 msec; 31.2 kHz, flip angle 30°, four excitations; 40 slice-encoding steps; scan time 7 min 36 seconds] with chemical shift fat-suppression was used 10, 20, 30, and 45 min after injection of the contrast agents. […] The intensities of the regions of interest (ROIs) (for example, a whole axillary lymph node, and the liver) were measured, and then the time-intensity curves analyzed. The data were expressed as the axillary lymph node-to-muscle and the axillary lymph node-to-liver ratios. […]

[2] = tested on: lymph nodes and lymphatic vessels of IL-15 transgenic mice; test: 3D-micro-MRL in IL-15 transgenic lymphoproliferative/neoplastic disease model; format: in vivo; settings: 45 minutes after injection
Description: Eight- to 10-month old IL-15 transgenic mice (on a C57BL6 background) were used as a chronic lymphoproliferative/neoplastic disease model because they manifested selective expansion of NK, CD8^+NK-T, γδIELs, and CD8 T cells in the periphery. Most of the lymph nodes collected from an aged IL-15 transgenic mouse were enlarged in size. The lesion of proliferated monoclonal lymphocytes often involved the lung and the subcutaneous lymphatic tissue.
as §1
(§3) A 3D-fast spoiled gradient echo [3D-fastSPGR (efgre3d package; Signa Horizon, GE); repetition time/echo time 28.5/7.9 msec; inversion time 65 msec; 31.2 kHz, flip angle 30°, four excitations; 40 slice-encoding steps; scan time 7 min 36 seconds] with chemical shift fat-suppression was used 10, 20, 30, and 45 min after injection of the contrast agents. The coronal images were reconstructed with 0.6-mm section thickness at every 0.3-mm. […] The intensities of the regions of interest (ROIs) (for example, a whole axillary lymph node, and the liver) were measured, and then the time-intensity curves analyzed. The data were expressed as the axillary lymph node-to-muscle and the axillary lymph node-to-liver ratios. […] Two board-certified radiologists separately read a set of stereo views of 3D-MRL for all studies, and estimated the visualization of the thoracic duct. […]

[3] = tested on: lymph nodes infiltrated with MC-38 colorectal cancer cells; test: 3D-MRL in MC38 colorectal cancer lymph node metastasis model; format: in vivo, C57BL6 mice
Description: In addition, 10-week-old C57BL6 mice (NCI, Frederick, Md.) bearing lymph node metastases of MC38 colorectal cancer cells following either intravenous or subcutaneous injection were used as a mouse model manifesting lymph node metastasis.
The mice were anesthetized with 1.15 mg sodium pentobarbital (Dainabot, Osaka, Japan) i.p., and then injected intracutaneously with 0.1 μmolGd of PAMAM-G8, DAB-G5, PAMAM-G4, Gadomer-17, or GPDM into four middle phalanges in all four extremities. […]
as §3, with “agents.” for “agents. The coronal images were reconstructed with 0.6-mm section thickness at every 0.3-mm.”

[4] = tested on: deep lymph nodes, thoracic duct and lymphatic vessels; test: Whole-body 3D-micro-MR lymphangiography of normal mice, PAMAM-G8 versus GPDM (Example 3); format: in vivo
Description: as §1, §2
(§4) In this example, the PAMAM-G8 contrast agent is compared to GPDM. PAMAM-G8 was prepared as described in Example 2, and GPDM was purchased (Schering AG, Berlin, Germany). Animal models, administration of the contrast agents, and 3D-micro-MRL were as described in Example 2.

[5] = tested on: external iliac lymph nodes in infection model; test: 3D-micro-MRL of nude mice with spontaneous oral ulcers and urinary tract infections; format: in vivo; settings: 45 minutes after injection, FIG. 16B
Description: as §4
Nude mice that develop spontaneous oral ulcers and urinary tract infections also were examined.

[6] = Distribution and survival properties of the dendrimer conjugates; settings: in vivo

PAMAM-G7D-(Gd-1B4M)1024 dendrimer conjugate [PAMAM-G8]
Number of Mice in Which the Thoracic Duct was Visualized/Number of Mice Examined (deep lymphatic system; 10 min): 10/10 | Number of Mice in Which the Thoracic Duct was Visualized/Number of Mice Examined (deep lymphatic system; 20 min): 10/10 | Number of Mice in Which the Thoracic Duct was Visualized/Number of Mice Examined (deep lymphatic system; 30 min): 10/10 | Number of Mice in Which the Thoracic Duct was Visualized/Number of Mice Examined (deep lymphatic system; 45 min): 10/10 | Axillary lymph node-to-background (muscle) signal intensity ratio, comparison between agents (deep lymphatic system; T1-weighted signal, all time points examined, P<0.01, FIG. 9A): significantly higher than that measured with Gadomer-17 and GPDM | Axillary lymph node-to-liver signal intensity ratio, comparison between agents (deep lymphatic system; all time points examined, P<0.01, FIG. 9B): nearly equivalent, but were significantly higher than that measured with GPDM | Visualization of the lymphatic vessels, comparison between agents (deep lymphatic system; normal mice): better visualized with PAMAM-G8 compared to all other agents examined | Visualization of the deep lymph nodes (deep lymphatic system; normal mice, 10 to 45 min after intracutaneous injection, FIGS. 7, 8): enabled most of the deep lymph nodes to be visualized | Visualization by a radiologist of the thoracic duct (deep lymphatic system; normal mice, all times after administration): in all mice at all times after administration | Detection of dilation of the lymphatic vessels [1]: demonstrated the remarkable dilation of the lymphatic vessels throughout the body, especially in the liver; also recorded: able to detect remarkable dilation of lymphatic vessels | Visualization of dilation of lymphatic vessels ([2]; FIG. 11): best visualized with PAMAM-G8 | Lymph node findings on 3D-micro-MRL ([2]; FIGS. 11, 15A): considerable multiple lymph node swellings with central filling defects; also recorded: enlargement and a lack of enhancement within several of the lymph nodes | Findings on 3D-MRL in mouse with lymph node metastasis ([3]; 45 minutes after injection, FIG. 12 left image): dilated lymphatic vessels surrounding the tumor and a collateral lymphatic vessel | Findings on 3D-MRL in mice with subcutaneously xenografted MC-38 tumor ([3]; FIG. 12 right image): did not show any abnormalities in either the lymph nodes or the lymphatic vessels | Visualization of other lymphatic vessels [4]: better visualized with PAMAM-G8 than with GPDM | Visualization of deep lymph nodes throughout the body ([4]; intracutaneous injection, 0.05 mmolGd/kg (FIG. 13)): most deep lymph nodes throughout the body were visualized | Visualization of the thoracic duct ([4]; intracutaneous injection, FIG. 13): visualized in all six mice | Lymph node findings in infection model [5]: irregular dilation of the lymphatic vessels in the lymph nodes | Distribution within the lymphatic system [6]: lymphotropic behavior (accumulation in the lymph system) and minimal leakage out of the lymphatic vessels
